These results are taken from PubChem BioAssay (NCI).

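Briefly, cells in 96-well plates were exposed to five compound concentrations for 48 h, and endpoints were estimated by linear interpolation. TGI is the concentration that stops growth completely.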 Where only a bound is given, the exact number is not on record here.

Some test systems named below: 786-0 renal; ACHN renal; DU-145 prostate; HCC-2998 colon; HCT-15 colon; HT29 colon; KM12 colon; MOLT-4 leukemia; NCI-H226 lung; NCI/ADR-RES ovarian; OVCAR-8 ovarian; SF-268 CNS; SF-295 CNS; SK-MEL-2 melanoma; SK-MEL-5 melanoma; TK-10 renal; U251 CNS; UO-31 renal.
Holding throughout (experiment): inhibition of tumour cell growth, NCI panel, 48 h

Consider `COC(=O)/C=C\C(C#N)(C#N)N=Cc1ccc(C)cc1`, for which the TGI stood at 3.44 µM with 786-0 renal; 6.04 µM in the experiment on ACHN renal; 15.7 µM with DU-145 prostate; 35.3 µM with HCC-2998 colon; 6.87 µM with HCT-15 colon; 18.7 µM with HT29 colon. The TGI in the experiment with KM12 colon turned out to be 35.3 µM; in the experiment on MOLT-4 leukemia, 3.77 µM; in the experiment on NCI-H226 lung, 21.5 µM; in the experiment with NCI/ADR-RES ovarian, 10.9 µM; in the experiment on OVCAR-8 ovarian, 6.12 µM; in the experiment with SF-268 CNS it was 9.33 µM. Also, the TGI stood at 51 µM in the experiment on SF-295 CNS; 32.1 µM in the experiment on SK-MEL-2 melanoma; 26.9 µM in the experiment with SK-MEL-5 melanoma; 3.65 µM in the experiment on TK-10 renal; 27.7 µM in the experiment on U251 CNS; 7.16 µM in the experiment with UO-31 renal.

As for `N[C@@H](Cc1ccccc1)C(=O)N1CCC[C@@H]1P(=O)(Oc1ccccc1)Oc1ccccc1`, the TGI in the experiment on 786-0 renal, in the experiment on ACHN renal, with DU-145 prostate, with HCC-2998 colon, with HCT-15 colon and with HT29 colon was > 100 µM each time. Also, the TGI with KM12 colon, in the experiment on MOLT-4 leukemia, with NCI-H226 lung, in the experiment with NCI/ADR-RES ovarian, in the experiment on OVCAR-8 ovarian and with SF-268 CNS was > 100 µM throughout. Moreover, the TGI with SF-295 CNS, in the experiment on SK-MEL-2 melanoma, in the experiment on SK-MEL-5 melanoma, in the experiment on TK-10 renal, in the experiment with U251 CNS and with UO-31 renal was > 100 µM in each case.

For the compound `Oc1cc(Cl)cc2cccnc12`, the TGI is > 54.9 µM with 786-0 renal; > 91.6 µM in the experiment on ACHN renal; > 89.7 µM in the experiment with DU-145 prostate; > 70 µM in the experiment on HCC-2998 colon; > 100 µM with HCT-15 colon; 32.2 µM in the experiment on HT29 colon. Besides, the TGI is > 100 µM with KM12 colon; 3.98 µM in the experiment with MOLT-4 leukemia; 69.6 µM in the experiment on NCI-H226 lung; 5.37 µM in the experiment on NCI/ADR-RES ovarian; > 100 µM with OVCAR-8 ovarian; > 39.5 µM in the experiment with SF-268 CNS. The TGI is 15.9 µM with SF-295 CNS; > 100 µM in the experiment with SK-MEL-2 melanoma; 13.4 µM with SK-MEL-5 melanoma; > 100 µM in the experiment on TK-10 renal; > 47.9 µM with U251 CNS; > 100 µM in the experiment with UO-31 renal.

In the case of `CC(C)(C)[Si](C)(C)OCC1OC(n2ccc(=O)[nH]c2=O)C(O[Si](C)(C)C(C)(C)C)/C1=C/C#N` (centres undefined), the TGI in the experiment with 786-0 renal is > 100 µM; in the experiment on ACHN renal it was > 60.5 µM; with DU-145 prostate, > 100 µM; in the experiment on HCC-2998 colon, > 100 µM; with HCT-15 colon, > 100 µM; with HT29 colon, > 47.7 µM. Moreover, the TGI with KM12 colon was > 42.2 µM; in the experiment with MOLT-4 leukemia, > 21.1 µM; in the experiment with NCI-H226 lung it was > 75.8 µM; in the experiment with NCI/ADR-RES ovarian, > 42.3 µM; with OVCAR-8 ovarian, > 100 µM; in the experiment with SF-268 CNS it was > 100 µM. The TGI with SF-295 CNS is > 81.4 µM; in the experiment with SK-MEL-2 melanoma, 42.4 µM; in the experiment on SK-MEL-5 melanoma it was 11.9 µM; with TK-10 renal it was > 44 µM; in the experiment on U251 CNS, > 44 µM; in the experiment on UO-31 renal, > 100 µM.

`NCCCN1c2ccccc2Sc2ccc(Cl)cc21`: the TGI with 786-0 renal is > 10 µM; in the experiment on ACHN renal, > 10 µM; with DU-145 prostate, > 10 µM; with HCC-2998 colon it was 4.2 µM; in the experiment on HCT-15 colon it was > 10 µM; in the experiment on HT29 colon, > 6.59 µM. For the same compound, the TGI was > 6.37 µM with KM12 colon; > 10 µM in the experiment with MOLT-4 leukemia; > 10 µM in the experiment with NCI-H226 lung; > 10 µM with NCI/ADR-RES ovarian; > 10 µM in the experiment with OVCAR-8 ovarian; > 10 µM in the experiment on SF-268 CNS. In addition, the TGI with SF-295 CNS was > 10 µM; with SK-MEL-2 melanoma, > 10 µM; in the experiment with SK-MEL-5 melanoma, > 5.52 µM; in the experiment on TK-10 renal it was > 10 µM; in the experiment on U251 CNS, > 10 µM; in the experiment on UO-31 renal, > 10 µM.

Regarding `CC(c1ccccc1)N1CCN(C(C)c2ccccc2)CC1` (centres undefined), the TGI is > 100 µM with 786-0 renal; > 100 µM with ACHN renal; > 100 µM in the experiment with DU-145 prostate; 44.6 µM in the experiment on HCC-2998 colon; > 100 µM in the experiment on HCT-15 colon; > 100 µM in the experiment on HT29 colon. Also, the TGI with KM12 colon, in the experiment on MOLT-4 leukemia, with NCI-H226 lung, in the experiment with NCI/ADR-RES ovarian, with OVCAR-8 ovarian and in the experiment on SF-268 CNS was > 100 µM throughout. The TGI in the experiment with SF-295 CNS was > 100 µM; in the experiment with SK-MEL-2 melanoma it was > 100 µM; with SK-MEL-5 melanoma it was 35.7 µM; in the experiment on TK-10 renal, > 100 µM; in the experiment with U251 CNS, > 100 µM; in the experiment with UO-31 renal it was > 100 µM.

`C=C1C(=O)CC2C1CC(=O)/C(C)=C/CCC(C)(O)C2O` (centres undefined): the TGI with 786-0 renal stood at 7.91 µM; in the experiment on ACHN renal, 4.92 µM; in the experiment with DU-145 prostate, 19.7 µM; in the experiment on HCC-2998 colon, 17.1 µM; with HCT-15 colon, 11.5 µM; in the experiment with HT29 colon, 26.9 µM. For the same compound, the TGI in the experiment with KM12 colon turned out to be 29.8 µM; with MOLT-4 leukemia, 6.2 µM; with NCI-H226 lung it was 61.6 µM; in the experiment on NCI/ADR-RES ovarian, 28.3 µM; in the experiment with OVCAR-8 ovarian, 11.6 µM; with SF-268 CNS, 35.6 µM. Further, the TGI in the experiment with SF-295 CNS amounted to 47.8 µM; in the experiment with SK-MEL-2 melanoma it was 22.9 µM; with SK-MEL-5 melanoma, 17.6 µM; in the experiment on TK-10 renal it was 8.51 µM; with U251 CNS it was 40.6 µM; in the experiment on UO-31 renal, 17.3 µM.

Regarding `CCOC(=O)c1cccc(N=Nc2nc[nH]c2/C=C/C(=O)OC)c1`, the TGI is > 100 µM in the experiment with 786-0 renal; > 100 µM in the experiment with ACHN renal; > 100 µM in the experiment on DU-145 prostate; 28.2 µM in the experiment with HCC-2998 colon; > 100 µM with HCT-15 colon; > 100 µM in the experiment with HT29 colon. For the same compound, the TGI was > 100 µM with KM12 colon; 40.2 µM in the experiment with MOLT-4 leukemia; > 100 µM in the experiment with NCI-H226 lung; > 100 µM with NCI/ADR-RES ovarian; > 100 µM in the experiment with OVCAR-8 ovarian; > 100 µM with SF-268 CNS. In addition, the TGI is > 100 µM in the experiment with SF-295 CNS; 63.5 µM with SK-MEL-2 melanoma; 36.9 µM in the experiment on SK-MEL-5 melanoma; > 100 µM in the experiment on TK-10 renal; > 100 µM with U251 CNS; > 100 µM in the experiment with UO-31 renal.
